Assay [1] deals with SARS-CoV-2 South African variant (linage: B.1.351). The experiment in a line: microbe, parasite or virus in culture. Type of assay: cell-based. Conditions: Severe acute respiratory syndrome coronavirus 2, Calu-3, read-out: IC50, inhibition of SARS-CoV-2 replication.
For assay [2], the system named is SARS-CoV-2 Scotland variant (linage: B.1.222). Briefly: microbe, parasite or virus in culture. In kind it is cell-based. To be noted: Severe acute respiratory syndrome coronavirus 2, Calu-3, read-out: IC50, inhibition of SARS-CoV-2 replication.

A word on the pIC50: it is −log10 of the IC50, conventionally taken in molar units.

pIC50: −log10 of the molar value.

`O=C1Nc2cc(C(F)(F)F)ccc2Oc2ccsc21` [MU-UNMC-2, 7-(trifluoromethyl) benzo[b]thieno[2,3-f][1,4]oxazepin-10(9H)-one]: the values for the pIC50 in assay [1] and in assay [2] were 5.52 and 5.86, respectively.
For the molecule `CN1C(=O)c2ccccc2[S+]([O-])c2cc([N+](=O)[O-])ccc2S1(=O)=O` (stereo not shown) [MU-UNMC-1, 6-methyl-2-nitrodibenzo[d,g][1,6,2]dithiazocin-7(6H)-one 5,5,12-trioxide], the figures for the pIC50 in assay [1] and in assay [2] were 5.03 and 5.58, respectively.

Source of the values: PMC8610590 (Journal of Virology, 2021).
